In general, IC50 refers to the concentration that gives 50% inhibition. Usually melting point stands for the temperature, or range, at which the solid turns liquid.

For data set [1], the target named is T1, DCLK1 (Homo sapiens, UniProt O15075).
T1 construct: purchased Eurofins (Belgium), contract assay service
T1 sequence (O15075 1-740): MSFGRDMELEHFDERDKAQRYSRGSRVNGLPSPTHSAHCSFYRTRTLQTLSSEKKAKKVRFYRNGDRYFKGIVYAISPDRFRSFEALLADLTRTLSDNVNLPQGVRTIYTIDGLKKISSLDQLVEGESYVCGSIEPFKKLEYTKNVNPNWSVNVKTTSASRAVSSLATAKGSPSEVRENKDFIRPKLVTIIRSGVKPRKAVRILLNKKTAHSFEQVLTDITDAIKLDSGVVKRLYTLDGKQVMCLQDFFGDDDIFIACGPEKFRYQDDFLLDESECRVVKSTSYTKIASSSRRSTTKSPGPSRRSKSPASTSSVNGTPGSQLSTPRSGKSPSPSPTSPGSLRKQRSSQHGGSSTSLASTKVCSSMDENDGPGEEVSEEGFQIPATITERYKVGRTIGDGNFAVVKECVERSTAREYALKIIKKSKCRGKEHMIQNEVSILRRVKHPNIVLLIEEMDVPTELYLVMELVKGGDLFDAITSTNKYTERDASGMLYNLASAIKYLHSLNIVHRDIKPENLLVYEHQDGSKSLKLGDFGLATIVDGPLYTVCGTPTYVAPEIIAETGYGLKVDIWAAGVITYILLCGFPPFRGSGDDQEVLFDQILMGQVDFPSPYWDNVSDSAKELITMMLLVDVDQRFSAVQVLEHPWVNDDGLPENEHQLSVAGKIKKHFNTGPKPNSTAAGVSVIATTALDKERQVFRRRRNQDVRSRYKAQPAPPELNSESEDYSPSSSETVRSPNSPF
The data set is described as follows: In vitro DCLK1 kinase activity assay (Eurofins). The following applies: for Selectivity (IC50 of DCLK1/IC50 of LRRK2): ratio of IC50 values; for Selectivity (DCLK1 activity/LRRK2 activity): ratio of remaining activities at 1 uM; for activity at 1 µM: read-out: DCLK1 activity (%). The format is biochemical. From the text: (§1) Eurofins (Belgium) conducted in vitro DCLK1 and LRRK2 kinase activity assays. Compounds were sent as dry powders to Eurofins.

Data set [2] deals with HCT116. The data set is described as follows: In vitro cytotoxicity / anti-proliferation assay (CCK8). The format is cell-based. The following applies: Homo sapiens, HCT-116, colorectal cancer cell line HCT116, 72 h. The method, then:
To determine whether DCLK1 was required for tumour cell proliferation, the cytotoxicity of compounds was evaluated in colorectal cancer cell line HCT116. HCT116 was treated with compounds for 72 h, and the cell viability was determined using CCK8 assay (Figure 4). The antiproliferative effects of most compounds on HCT116 were correlated with their DCLK1 inhibitory activities, except for compounds D1 and D2. The poor cytotoxicity of compounds D1 and D2 may be attributed to their poor cell membrane permeability due to the negatively charged carboxylates. […] Overall, targeting DCLK1 inhibited the proliferation of HCT116, indicating the importance of DCLK1 in tumour growth.
A 96-well plate (3599, Corning, USA) was inoculated with 100 μL of complete medium containing 10 000 cells, and the experimental, control, and blank groups were established. Three parallel wells were used per concentration. After 10 h, media from the experimental and control groups were replaced with a complete medium containing the indicated concentration of the compound. Cells were incubated for 72 h before 10 μL of CCK8 reagent (CA1210, Solarbio, China) was added to each well and incubated for 1 h. The absorbance at 450 nm was measured with a microplate reader (Tecan, Switzerland). The IC50 was determined using GraphPad Prism 8 and nonlinear regression curve fitting.

In data set [3] the target is T2, LRRK2 (Homo sapiens, UniProt Q5S007).
T2 construct: purchased Eurofins (Belgium), contract assay service
T2 sequence (Q5S007 whole entry): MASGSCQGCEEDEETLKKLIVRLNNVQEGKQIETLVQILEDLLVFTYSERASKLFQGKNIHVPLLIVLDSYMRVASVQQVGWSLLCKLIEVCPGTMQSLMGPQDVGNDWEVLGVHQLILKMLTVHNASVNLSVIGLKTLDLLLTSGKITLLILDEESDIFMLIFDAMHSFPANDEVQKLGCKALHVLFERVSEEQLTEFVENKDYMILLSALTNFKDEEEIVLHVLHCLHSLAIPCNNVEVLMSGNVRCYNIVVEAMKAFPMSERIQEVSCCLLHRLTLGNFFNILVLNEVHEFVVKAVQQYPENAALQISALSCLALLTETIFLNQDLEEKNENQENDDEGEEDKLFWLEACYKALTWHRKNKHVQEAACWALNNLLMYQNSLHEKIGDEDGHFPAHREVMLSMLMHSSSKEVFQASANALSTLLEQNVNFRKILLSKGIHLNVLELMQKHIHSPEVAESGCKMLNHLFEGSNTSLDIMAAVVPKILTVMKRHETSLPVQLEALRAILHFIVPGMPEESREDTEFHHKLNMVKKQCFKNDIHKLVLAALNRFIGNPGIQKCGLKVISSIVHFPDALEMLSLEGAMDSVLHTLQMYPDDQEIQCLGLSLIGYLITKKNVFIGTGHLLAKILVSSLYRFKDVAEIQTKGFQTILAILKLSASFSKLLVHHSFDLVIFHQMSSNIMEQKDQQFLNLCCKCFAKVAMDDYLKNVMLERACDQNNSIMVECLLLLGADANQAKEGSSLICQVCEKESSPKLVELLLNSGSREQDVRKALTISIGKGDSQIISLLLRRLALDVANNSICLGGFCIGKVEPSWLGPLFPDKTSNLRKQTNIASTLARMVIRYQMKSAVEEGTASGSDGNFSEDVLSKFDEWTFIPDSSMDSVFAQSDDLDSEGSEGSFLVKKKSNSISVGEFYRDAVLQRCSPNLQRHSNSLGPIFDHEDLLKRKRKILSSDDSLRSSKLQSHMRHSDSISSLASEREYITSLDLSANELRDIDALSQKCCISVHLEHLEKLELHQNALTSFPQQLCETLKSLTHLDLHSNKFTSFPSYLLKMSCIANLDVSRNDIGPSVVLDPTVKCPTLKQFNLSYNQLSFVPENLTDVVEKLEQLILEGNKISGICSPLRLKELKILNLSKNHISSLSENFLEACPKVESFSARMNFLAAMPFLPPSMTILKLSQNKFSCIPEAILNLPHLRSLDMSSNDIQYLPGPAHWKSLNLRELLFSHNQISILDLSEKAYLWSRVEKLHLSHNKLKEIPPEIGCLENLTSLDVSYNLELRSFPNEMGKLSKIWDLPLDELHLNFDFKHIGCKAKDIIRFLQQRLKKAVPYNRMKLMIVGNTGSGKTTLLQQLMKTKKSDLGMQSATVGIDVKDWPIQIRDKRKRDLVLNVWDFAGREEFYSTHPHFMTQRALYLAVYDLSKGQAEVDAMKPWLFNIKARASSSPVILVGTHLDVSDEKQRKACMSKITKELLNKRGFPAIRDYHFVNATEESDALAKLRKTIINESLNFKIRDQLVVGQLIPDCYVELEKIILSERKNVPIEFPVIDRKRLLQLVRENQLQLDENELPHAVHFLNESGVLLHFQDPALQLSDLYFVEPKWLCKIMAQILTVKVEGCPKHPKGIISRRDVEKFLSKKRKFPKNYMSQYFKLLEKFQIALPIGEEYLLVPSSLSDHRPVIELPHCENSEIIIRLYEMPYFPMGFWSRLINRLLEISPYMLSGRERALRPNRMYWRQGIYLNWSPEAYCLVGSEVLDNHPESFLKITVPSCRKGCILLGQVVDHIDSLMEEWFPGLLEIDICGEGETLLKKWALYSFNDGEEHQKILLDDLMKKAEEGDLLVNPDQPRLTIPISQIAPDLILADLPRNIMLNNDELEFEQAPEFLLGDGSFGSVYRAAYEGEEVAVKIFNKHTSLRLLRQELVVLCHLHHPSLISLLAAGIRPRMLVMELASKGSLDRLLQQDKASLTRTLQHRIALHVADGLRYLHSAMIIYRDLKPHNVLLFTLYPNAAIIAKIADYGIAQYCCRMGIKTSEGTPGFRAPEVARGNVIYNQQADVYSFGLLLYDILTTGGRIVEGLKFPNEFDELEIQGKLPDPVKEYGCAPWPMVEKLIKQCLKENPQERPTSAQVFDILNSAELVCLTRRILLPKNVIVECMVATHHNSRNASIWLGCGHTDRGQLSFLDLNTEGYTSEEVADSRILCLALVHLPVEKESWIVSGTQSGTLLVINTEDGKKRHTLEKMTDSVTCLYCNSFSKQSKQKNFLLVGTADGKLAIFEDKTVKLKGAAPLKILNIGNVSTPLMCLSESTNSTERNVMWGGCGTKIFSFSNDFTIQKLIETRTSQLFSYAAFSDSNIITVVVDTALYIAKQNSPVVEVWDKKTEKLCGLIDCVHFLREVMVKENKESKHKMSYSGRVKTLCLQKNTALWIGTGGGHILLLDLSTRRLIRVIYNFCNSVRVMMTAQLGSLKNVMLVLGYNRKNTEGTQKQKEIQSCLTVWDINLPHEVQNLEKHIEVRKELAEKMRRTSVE
The data set is described as follows: In vitro LRRK2 kinase activity assay (Eurofins). The format is biochemical. The following applies: for activity at 1 µM: remaining kinase activity at 1 uM compound, 100% = no inhibition, 0% = complete inhibition. The method, then:
All compounds were tested for their kinase inhibitory activity at the concentration of 1 μM. […] Compounds with high activity or good selectivity were selected for further IC50 determination (Table 2).
as §1

Where [4] appears, read: remaining kinase activity at 1 uM compound, 100% = no inhibition, 0% = complete inhibition.

Like-named read-outs stand apart in the source and are kept apart here.

As to `COc1cc(NC(=O)CCC(=O)O)ccc1Nc1ncc2c(n1)N(C)c1ccccc1C(=O)N2C` [Compound D2, 4-((4-((5,11-Dimethyl-6-oxo-6,11-dihydro-5H-benzo[e]pyrimido[5,4-b][1,4]diazepin-2-yl)amino)-3-methoxyphenyl)amino)-4-oxobutanoic acid], the melting point was in the range of 237 to 238 °C. In data set [1], the “Selectivity (IC50 of DCLK1/IC50 of LRRK2)” value was under 0.07 and the “Selectivity (DCLK1 activity/LRRK2 activity)” value was found to be 0.20. Moreover, in data set [1] (read-out: IC50 of DCLK1), the concentration for half-maximal inhibition (IC50) is 0.07 µM. In data set [1] (setting [4]), the activity at 1 µM came out at 10%. Also, the IC50 in data set [2] is over 100 µM. In addition, in data set [3], the IC50 is over 1 µM and the activity at 1 µM came out at 49%.
Consider `COc1cc(NC(=O)CCCCCSC(C)=O)ccc1Nc1ncc2c(n1)N(C)c1ccccc1C(=O)N2C` [Compound D8, S-(6-((4-((5,11-dimethyl-6-oxo-6,11-dihydro-5H-benzo[e]pyrimido[5,4-b][1,4]diazepin-2-yl)amino)-3-methoxyphenyl)amino)-6-oxohexyl) ethanethioate], for which the melting point lay within 159 to 160 °C. Besides, in data set [1], the “Selectivity (IC50 of DCLK1/IC50 of LRRK2)” value was 0.18 and the “Selectivity (DCLK1 activity/LRRK2 activity)” value is given as 0.36. The IC50 in data set [1] (read-out: IC50 of DCLK1) worked out at 0.04 µM. Further, the activity at 1 µM in data set [1] (setting [4]) was found to be 8%. This compound displayed a half-maximal inhibitory concentration (IC50) in data set [2] of 11.5 µM. In data set [3], this compound had an IC50 of 0.228 µM and an activity at 1 µM of 22%.
Turning to `COc1cc(N2CCC(C)(O)CC2)ccc1Nc1ncc2c(n1)N(C)c1ccccc1C(=O)N2C` [Compound D15, 2-((4-(4-Hydroxy-4-methylpiperidin-1-yl)-2-methoxyphenyl)amino)-5,11-dimethyl-5,11-dihydro-6H-benzo[e]pyrimido[5,4-b][1,4]diazepin-6-one], the melting point was 162 to 163 °C. In data set [1], the “Selectivity (IC50 of DCLK1/IC50 of LRRK2)” value stood at 0.58 and the “Selectivity (DCLK1 activity/LRRK2 activity)” value came to 0.44. Besides, the half-inhibitory concentration (IC50) in data set [1] (read-out: IC50 of DCLK1) came out at 0.052 µM. The activity at 1 µM in data set [1] (setting [4]) is 4%. The half-inhibitory concentration (IC50) in data set [2] amounted to 9.88 µM. In data set [3], this compound showed an IC50 of 0.089 µM and an activity at 1 µM of 9%.
On to `CCOc1cc(N2CCS(=O)(=O)CC2)ccc1Nc1ncc2c(n1)N(C)c1ccccc1C(=O)N2C` [Compound D6, 2-((4-(1,1-Dioxidothiomorpholino)-2-ethoxyphenyl)amino)-5,11-dimethyl-5,11-dihydro-6H-benzo[e]pyrimido[5,4-b][1,4]diazepin-6-one], for which the melting point lay in the range of 157 to 158 °C. For the same compound, in data set [1], the “Selectivity (IC50 of DCLK1/IC50 of LRRK2)” value turned out to be 0.38 and the “Selectivity (DCLK1 activity/LRRK2 activity)” value is 0.47. Further, the IC50 in data set [1] (read-out: IC50 of DCLK1) is 0.074 µM. Further, the activity at 1 µM in data set [1] (setting [4]) was found to be 9%. Inhibition in data set [2] was half-maximal at 12 µM (IC50). In data set [3], this compound came in with an IC50 of 0.195 µM and an activity at 1 µM of 19%.
On to `COc1cc(N2CCC(F)(F)CC2)ccc1Nc1ncc2c(n1)N(C)c1ccccc1C(=O)N2C` [Compound D14, 2-((4-(4,4-Difluoropiperidin-1-yl)-2-methoxyphenyl)amino)-5,11-dimethyl-5,11-dihydro-6H-benzo[e]pyrimido[5,4-b][1,4]diazepin-6-one], for which the melting point was 171 to 172 °C. Also, in data set [1], the “Selectivity (IC50 of DCLK1/IC50 of LRRK2)” value was found to be 0.40 and the “Selectivity (DCLK1 activity/LRRK2 activity)” value is listed as 0.44. In data set [1] (read-out: IC50 of DCLK1), the IC50 was determined as 0.053 µM. Moreover, the activity at 1 µM in data set [1] (setting [4]) amounted to 7%. Inhibition in data set [2] was half-maximal at 15.5 µM (IC50). Besides, in data set [3], half-maximal inhibition (IC50) was put at 0.132 µM and the activity at 1 µM worked out at 16%.
With `CCOc1cc(N2CCN(C[C@@]3(O)OC[C@@H](O)[C@@H](O)[C@@H]3O)CC2)ccc1Nc1ncc2c(n1)N(C)c1ccccc1C(=O)N2C` [Compound D7, 2-((2-Ethoxy-4-(4-(((2R,3S,4R,5R)-2,3,4,5-tetrahydroxytetrahydro-2H-pyran-2-yl)methyl)piperazin-1-yl)phenyl)amino)-5,11-dimethyl-5,11-dihydro-6H-benzo[e]pyrimido[5,4-b][1,4]diazepin-6-one], the melting point lay within 126 to 127 °C. Moreover, in data set [1], the “Selectivity (IC50 of DCLK1/IC50 of LRRK2)” value is listed as 0.30 and the “Selectivity (DCLK1 activity/LRRK2 activity)” value came to 0.29. Moreover, in data set [1] (read-out: IC50 of DCLK1), the IC50 was found to be 0.046 µM. In addition, the activity at 1 µM in data set [1] (setting [4]) turned out to be 6%. In data set [2], this compound returned a half-maximal inhibitory concentration (IC50) of 10.5 µM. In data set [3], the concentration for half-maximal inhibition (IC50) came to 0.154 µM and the activity at 1 µM stood at 21%.
Compound `CCOc1cc(N2CCC(C(=O)O)CC2)ccc1Nc1ncc2c(n1)N(C)c1ccccc1C(=O)N2C` [Compound D3, 1-(4-((5,11-Dimethyl-6-oxo-6,11-dihydro-5H-benzo[e]pyrimido[5,4-b][1,4]diazepin-2-yl)amino)-3-ethoxyphenyl)piperidine-4-carboxylic acid] came in with a melting point of 159 to 160 °C. Also, in data set [1], the “Selectivity (IC50 of DCLK1/IC50 of LRRK2)” value is under 0.34 and the “Selectivity (DCLK1 activity/LRRK2 activity)” value was determined as 0.59. For the same compound, the IC50 in data set [1] (read-out: IC50 of DCLK1) amounted to 0.34 µM. Besides, the activity at 1 µM in data set [1] (setting [4]) stood at 20%. This compound came in with an IC50 in data set [2] of 21.5 µM. In data set [3], this compound gave an IC50 of over 1 µM and an activity at 1 µM of 34%.
Turning to `CCOc1cc(N2CCSCC2)ccc1Nc1ncc2c(n1)N(C)c1ccccc1C(=O)N2C` [Compound D4, 2-((2-Ethoxy-4-thiomorpholinophenyl)amino)-5,11-dimethyl-5,11-dihydro-6H-benzo[e]pyrimido[5,4-b][1,4]diazepin-6-one], the melting point is 190 to 191 °C. Also, in data set [1], the “Selectivity (IC50 of DCLK1/IC50 of LRRK2)” value amounted to 0.64 and the “Selectivity (DCLK1 activity/LRRK2 activity)” value was 0.55. For the same compound, the IC50 in data set [1] (read-out: IC50 of DCLK1) worked out at 0.271 µM. Further, the activity at 1 µM in data set [1] (setting [4]) amounted to 18%. This compound also showed an IC50 in data set [2] of 28.8 µM. Moreover, in data set [3], the half-maximal inhibitory concentration (IC50) came to 0.425 µM and the activity at 1 µM came out at 33%.
`COc1cc(NC(=O)CC(=O)O)ccc1Nc1ncc2c(n1)N(C)c1ccccc1C(=O)N2C` [Compound D1, 3-((4-((5,11-Dimethyl-6-oxo-6,11-dihydro-5H-benzo[e]pyrimido[5,4-b][1,4]diazepin-2-yl)amino)-3-methoxyphenyl)amino)-3-oxopropanoic acid] had a melting point of 187 to 188 °C. Also, in data set [1], the “Selectivity (IC50 of DCLK1/IC50 of LRRK2)” value is listed as under 0.05 and the “Selectivity (DCLK1 activity/LRRK2 activity)” value stood at 0.13. The IC50 in data set [1] (read-out: IC50 of DCLK1) is 0.047 µM. Further, the activity at 1 µM in data set [1] (setting [4]) was determined as 7%. The compound further showed an IC50 in data set [2] of over 100 µM. Besides, in data set [3], the IC50 was over 1 µM and the activity at 1 µM came to 56%.
For the compound `CCOc1cc(N2CCC(O)CC2)ccc1Nc1ncc2c(n1)N(C)c1ccccc1C(=O)N2C` [XMD8-92, reference compound], the results for the IC50 in data set [1], in data set [2] and in data set [3] were 0.161 µM, 16.2 µM and 0.219 µM, respectively. Also, the results for the activity at 1 µM in data set [1] and in data set [3] were 14% and 18%, respectively.
`CCOc1cc(N2CCC(O)CC2)ccc1Nc1ncc2c(n1)N(C)c1ccccc1C(=O)N2CC` [Compound B3, 2-((2-Ethoxy-4-(4-hydroxypiperidin-1-yl)phenyl)amino)-5-ethyl-11-methyl-5,11-dihydro-6H-benzo[e]pyrimido[5,4-b][1,4]diazepin-6-one] registered a melting point of 162 to 163 °C. Also, in data set [1], the “Selectivity (IC50 of DCLK1/IC50 of LRRK2)” value is on record as under 0.32 and the “Selectivity (DCLK1 activity/LRRK2 activity)” value is listed as 0.40. In data set [1] (read-out: IC50 of DCLK1), the IC50 is 0.324 µM. Further, the activity at 1 µM in data set [1] (setting [4]) worked out at 28%. This compound had an IC50 in data set [2] of 33.2 µM. In data set [3], this compound yielded an IC50 of over 1 µM and an activity at 1 µM of 70%.

The values are drawn from article PMC11792831, “Design and synthesis of doublecortin-like kinase 1 inhibitors and their bioactivity evaluation” (Journal of Enzyme Inhibition and Medicinal Chemistry, 2023).
